Measured values: patent US20250002473A1, “QUINOXALINE DERIVED SULFONAMIDES WITH EGFR DEGRADATION ACTIVITIES AND THEIR USES THEREOF” (Accutar Biotechnology Inc., priority 2023, published 2025)

Columns and labels:
Format in all cases: cell-based
[1] = test system: BaF3_DTC; test: Cell growth inhibition assay (CellTiter-Glo), BaF3_DTC; details: 72 h; Table 6; BaF3_DTC cells, three days, CellTiter-Glo; read-out: BaF3_DTC GI50
Procedure: (§1) Cells were seeded in a 96-well plate (Corning 3610) with 90 μL of culture medium per well, and plates were incubated at 37° C. overnight. A 1,000× DMSO stock solution of the desired compound was prepared the following day. A compound dilution plate was prepared by diluting the stock solution 1:100 in the corresponding cell culture medium, 10 μL of the diluted compound solution was added to each 96-well plate well containing the seeded cells. […] The content of the wells was mixed by shaking continuously for 10 min, and luminescence was measured using Envision (PerkinElmer). The data were analyzed with GraphPad Prism 9 (see FIG. 50).
(§2) Table 6, Table 7, and Table 8 list the cell growth inhibition results, where Gls0 represents the compound concentration to cause 50% cell growth inhibition in comparison with DMSO.

[2] = test system: BaF3_DTC (EGFR_Exon19del/T790M/C797S); test: EGFR degradation assay (western blot), BaF3_DTC cells; details: BaF3_DTC cells (EGFR_Exon19del/T790M/C797S), compounds 24 h, western blot; read-out: BaF3_DTC DC50
Procedure: (§3) A431 (EGFR_WT), NCl-H2073 (EGFR_WT), NCl-H292 (EGFR_WT), BaF3_YVAM (Her2_A775insYVAM), BaF3_SVD (EGFR_D770insSVD), BaF3_ASV (EGFR_A776inASV), or BaF3_DTC (EGFR_Exon19del/T790M/C797S) cells were seeded in a 24-well plate at a density of 4×10^5 cells per well for EGFR WT cells and 8× cells per well for EGFR or Her2 mutant cells, and the plates were incubated overnight. The cells were treated with the desired compounds for 24 h. The culture medium was removed, and 100 μL of RIPA buffer (Beyotime, P0013B) containing 1% Protease Inhibitor Cocktail (Bimake, B14001), 1% Phosphatase Inhibitor Cocktail 2 (Sigma, P5726), and 1% Phosphatase Inhibitor Cocktail 3 (Sigma, P0044) were added to lyse the cells. Then, the cell lysates were transferred to 1.5 mL microcentrifuge tubes and centrifuged at 12,000 rpm and 4° C. for 30 min. The supernatants were transferred into new tubes, and the protein concentration was determined using the BCA protein quantification method. All samples were diluted to the same concentration using RIPA buffer, loading buffer was added, samples were denatured, and 15 μg of protein per lane was loaded onto a SurePAGE 4-20% Bis-Tris gel. Samples were separated via electrophoresis in MOPS running buffer at 180 V for 100 min. Then, proteins were transferred onto PVDF membranes using the MiniBlot™ Electrophoretic Transfer Cell Device (Beyotime, E6050). The membrane was blocked using block buffer (LI-COR 927-60001) to prevent non-specific binding. The membrane was incubated with primary antibodies (1:500 dilution, EGFR-CST4405, 1:2000 dilution, Tubulin-ABclonal #AC021) at 4° C. overnight. The membrane was washed three times with 1× TBST buffer for 15 min each. The membrane was incubated with secondary antibodies IRDye 680RD Goat anti-Rabbit IgG Secondary Antibody (1:2000 dilution, LI-COR 926-68071) and IRDye 800CW Goat anti-Mouse IgG Secondary Antibody (1:2000 dilution, LI-COR 926-32210). Finally, the membrane was washed again with 1× TBST buffer 3 times. Fluorescence was detected using the Odyssey CLx Imaging System, and the data were analyzed with Empiria Studio Software and GraphPad Prism 9. Table 4 and Table 5 list the degradation results, where the degradation potency is represented by DC50, the concentration of compounds to cause the degradation of 50% of the corresponding proteins. FIGS. 45-49 show western blots illustrating the EGFR degradative activity of exemplary Compound of the present disclosure and a comparator Compound A in different cell lines 24 h after administration. The Compound referred herein as Compound A is disclosed in WO 2022/171123 A1 (see, compound 133, page 46; published Aug. 18, 2022). WO 2022/171123 A1 discloses phosphine oxide derived molecules with EGFR degradation activity.

[3] = test system: BaF3_ASV; test: Cell growth inhibition assay (CellTiter-Glo), BaF3_ASV; details: 72 h; Table 6; BaF3_ASV cells, three days, CellTiter-Glo; read-out: BaF3_ASV GI50
Procedure: as §1, §2

[4] = test system: A431; test: Cell growth inhibition assay (CellTiter-Glo), A431; details: Homo sapiens, A-431, 72 h, Table 6; A431 cells, three days, CellTiter-Glo; read-out: A431 GI50
Procedure: as §1, §2

[5] = molecular target: T1, BaF3_ASV (EGFR_A776inASV) (Homo sapiens, UniProt P00533, DUP767-769); test: EGFR degradation assay (western blot), BaF3_ASV cells; details: BaF3_ASV cells, compounds 24 h, western blot; read-out: BaF3_ASV DC50
T1 construct: expressed in transfected cells; host or cells: Ba/F3 (engineered)
Procedure: as §3

T1 sequence (P00533 with tags, fused parts or gaps DUP767-769): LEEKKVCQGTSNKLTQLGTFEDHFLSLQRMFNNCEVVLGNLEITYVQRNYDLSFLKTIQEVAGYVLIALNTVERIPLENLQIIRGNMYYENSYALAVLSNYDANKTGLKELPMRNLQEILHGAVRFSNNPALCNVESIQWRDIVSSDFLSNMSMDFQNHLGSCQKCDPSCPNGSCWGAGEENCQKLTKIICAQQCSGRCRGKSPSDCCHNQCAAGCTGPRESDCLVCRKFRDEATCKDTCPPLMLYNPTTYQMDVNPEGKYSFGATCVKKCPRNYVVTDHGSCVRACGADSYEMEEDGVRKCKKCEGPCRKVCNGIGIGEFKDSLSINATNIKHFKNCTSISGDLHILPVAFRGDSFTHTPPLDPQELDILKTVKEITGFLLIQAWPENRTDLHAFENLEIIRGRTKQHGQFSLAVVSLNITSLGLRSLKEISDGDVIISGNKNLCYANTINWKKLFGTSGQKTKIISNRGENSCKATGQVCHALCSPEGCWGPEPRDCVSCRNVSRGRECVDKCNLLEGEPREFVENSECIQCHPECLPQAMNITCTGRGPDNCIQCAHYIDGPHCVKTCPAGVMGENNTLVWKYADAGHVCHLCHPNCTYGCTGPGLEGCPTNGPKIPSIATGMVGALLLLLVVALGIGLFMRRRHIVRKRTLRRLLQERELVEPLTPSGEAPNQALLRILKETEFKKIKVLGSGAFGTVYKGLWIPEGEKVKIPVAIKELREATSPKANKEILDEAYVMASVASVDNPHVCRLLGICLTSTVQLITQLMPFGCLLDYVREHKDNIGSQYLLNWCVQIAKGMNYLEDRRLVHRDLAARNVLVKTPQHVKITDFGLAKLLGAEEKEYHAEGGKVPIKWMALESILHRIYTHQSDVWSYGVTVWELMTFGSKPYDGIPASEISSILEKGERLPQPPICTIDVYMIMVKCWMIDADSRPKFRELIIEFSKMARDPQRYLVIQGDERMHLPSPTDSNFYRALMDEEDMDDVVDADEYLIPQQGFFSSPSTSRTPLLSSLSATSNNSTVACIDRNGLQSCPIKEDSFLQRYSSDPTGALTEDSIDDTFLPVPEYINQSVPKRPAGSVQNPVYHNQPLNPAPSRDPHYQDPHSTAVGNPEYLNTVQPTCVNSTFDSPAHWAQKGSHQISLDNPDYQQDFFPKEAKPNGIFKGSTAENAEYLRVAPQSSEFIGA

Structure (SMILES)	GI50 [1] [nM]	DC50 [2] [nM]	GI50 [3] [nM]	GI50 [4] [nM]	DC50 [5] [nM]
CCc1cc(Nc2ncc(Br)c(Nc3ccc4nccnc4c3NS(C)(=O)=O)n2)c(OC)cc1N1CCC(N2CCC3(CCN(c4ccc5c(c4)CN(C4CCC(=O)NC4=O)C5=O)CC3)CC2)CC1 (centres unmarked) [Compound 53, N-(6-((5-bromo-2-((4-(4-(9-(2-(2,6-dioxopiperidin-3-yl)-1-oxoisoindolin-5-yl)-3,9-diazaspiro[5.5]undecan-3-yl)piperidin-1-yl)-5-ethyl-2-methoxyphenyl)amino)pyrimidin-4-yl)amino)quinoxalin-5-yl)methanesulfonamide]	22.7	5.99	330	> 1000	> 1000
CCc1cc(Nc2ncc(Br)c(Nc3ccc4nccnc4c3NS(C)(=O)=O)n2)c(OC)cc1N1CCC(N2CCN(CCC3CCN(c4cc(F)c(C5CCC(=O)NC5=O)c(F)c4)CC3)CC2)CC1 (centres unmarked) [Compound 90, N-(6-((5-bromo-2-((4-(4-(4-(2-(1-(4-(2,6-dioxopiperidin-3-yl)-3,5-difluorophenyl)piperidin-4-yl)ethyl)piperazin-1-yl)piperidin-1-yl)-5-ethyl-2-methoxyphenyl)amino)pyrimidin-4-yl)amino)quinoxalin-5-yl)methanesulfonamide]	19.1	38.6	89.4	> 1000	135
COc1cc(N2CCC(N3CCN(CC4CCN(c5ccc6c(c5)CN(C5CCC(=O)NC5=O)C6=O)CC4)CC3)CC2)c(-c2cnn(C)c2)cc1Nc1ncc(Br)c(Nc2ccc3nccnc3c2NS(C)(=O)=O)n1 (centres unmarked) [Compound 32, N-(6-((5-bromo-2-((4-(4-(4-((1-(2-(2,6-dioxopiperidin-3-yl)-1-oxoisoindolin-5-yl)piperidin-4-yl)methyl)piperazin-1-yl)piperidin-1-yl)-2-methoxy-5-(1-methyl-1H-pyrazol-4-yl)phenyl)amino)pyrimidin-4-yl)amino)quinoxalin-5-yl)methanesulfonamide]	10.9	3.1	35.6	214	26
CCc1cc(Nc2ncc(Br)c(Nc3ccc4nccnc4c3NS(C)(=O)=O)n2)c(OC)cc1N1CCC(N2CCN(C3CCC4(CC3)CN(c3ccc5c(c3)CN(C3CCC(=O)NC3=O)C5=O)C4)CC2)CC1 (centres unmarked) [Compound 50, N-(6-((5-bromo-2-((4-(4-(4-(2-(2-(2,6-dioxopiperidin-3-yl)-1-oxoisoindolin-5-yl)-2-azaspiro[3.5]nonan-7-yl)piperazin-1-yl)piperidin-1-yl)-5-ethyl-2-methoxyphenyl)amino)pyrimidin-4-yl)amino)quinoxalin-5-yl)methanesulfonamide]	13	38.5	106	> 1000	95.2
CCc1cc(Nc2ncc(Br)c(Nc3ccc4nccnc4c3NS(C)(=O)=O)n2)c(OC)cc1N1CCC(N2CC(N3CCN(c4ccc5c(c4)CN([C@H]4CCC(=O)NC4=O)C5=O)CC3)C2)CC1 [Compound 63, (S)-N-(6-((5-bromo-2-((4-(4-(3-(4-(2-(2,6-dioxopiperidin-3-yl)-1-oxoisoindolin-5-yl)piperazin-1-yl)azetidin-1-yl)piperidin-1-yl)-5-ethyl-2-methoxyphenyl)amino)pyrimidin-4-yl)amino)quinoxalin-5-yl)methanesulfonamide]	6.23	12.9	40.8	> 1000	18.2
CCc1cc(Nc2ncc(Br)c(Nc3ccc4nccnc4c3NS(C)(=O)=O)n2)c(OC)cc1N1CCC(CN2CCN(c3ccc4c(c3)CN([C@H]3CCC(=O)NC3=O)C4=O)CC2)CC1 [Compound 43, (S)-N-(6-((5-bromo-2-((4-(4-((4-(2-(2,6-dioxopiperidin-3-yl)-1-oxoisoindolin-5-yl)piperazin-1-yl)methyl)piperidin-1-yl)-5-ethyl-2-methoxyphenyl)amino)pyrimidin-4-yl)amino)quinoxalin-5-yl)methanesulfonamide]	15	0.323	119	> 1000	
CCc1cc(Nc2ncc(Br)c(Nc3ccc4nccnc4c3NS(C)(=O)=O)n2)c(OC)cc1N1CCC(CN2CC3(CCN(c4ccc5c(c4)CN(C4CCC(=O)NC4=O)C5=O)CC3)C2)CC1 (centres unmarked) [Compound 58, N-(6-((5-bromo-2-((4-(4-((7-(2-(2,6-dioxopiperidin-3-yl)-1-oxoisoindolin-5-yl)-2,7-diazaspiro[3.5]nonan-2-yl)methyl)piperidin-1-yl)-5-ethyl-2-methoxyphenyl)amino)pyrimidin-4-yl)amino)quinoxalin-5-yl)methanesulfonamide]	11.2	10.4	49	> 1000	23
CCc1cc(Nc2ncc(Br)c(Nc3ccc4nccnc4c3NS(C)(=O)=O)n2)c(OC)cc1N1CCC(N2CCN(CC3CC4(CCN(c5ccc6c(c5)CN(C5CCC(=O)NC5=O)C6=O)CC4)C3)CC2)CC1 (centres unmarked) [Compound 47, N-(6-((5-bromo-2-((4-(4-(4-((7-(2-(2,6-dioxopiperidin-3-yl)-1-oxoisoindolin-5-yl)-7-azaspiro[3.5]nonan-2-yl)methyl)piperazin-1-yl)piperidin-1-yl)-5-ethyl-2-methoxyphenyl)amino)pyrimidin-4-yl)amino)quinoxalin-5-yl)methanesulfonamide]	12.1	14.5	47.5	> 1000	
CCc1cc(Nc2ncc(Br)c(Nc3ccc4nccnc4c3NS(C)(=O)=O)n2)c(OC)cc1N1CCC(N2CCN(CC3(CN4CCN(c5ccc6c(c5)CN([C@H]5CCC(=O)NC5=O)C6=O)CC4)CC3)CC2)CC1 [Compound 42, (S)-N-(6-((5-bromo-2-((4-(4-(4-((1-((4-(2-(2,6-dioxopiperidin-3-yl)-1-oxoisoindolin-5-yl)piperazin-1-yl)methyl)cyclopropyl)methyl)piperazin-1-yl)piperidin-1-yl)-5-ethyl-2-methoxyphenyl)amino)pyrimidin-4-yl)amino)quinoxalin-5-yl)methanesulfonamide]	86	> 100	105	606	> 1000
CCc1cc(Nc2ncc(Br)c(Nc3ccc4nccnc4c3NS(C)(=O)=O)n2)c(OC)cc1N1CCC(N2CCN(CCN3CCN(c4ccc5c(c4)CN([C@H]4CCC(=O)NC4=O)C5=O)CC3)CC2)CC1 [Compound 39, (S)-N-(6-((5-bromo-2-((4-(4-(4-(2-(4-(2-(2,6-dioxopiperidin-3-yl)-1-oxoisoindolin-5-yl)piperazin-1-yl)ethyl)piperazin-1-yl)piperidin-1-yl)-5-ethyl-2-methoxyphenyl)amino)pyrimidin-4-yl)amino)quinoxalin-5-yl)methanesulfonamide]	11.1	3.13	73.4	441	
